Data from PubChem BioAssay (NCI).
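Where inhibition never reached the appropriate level, the endpoint shown equals the highest concentration tested. Otherwise, values were interpolated linearly from a five-concentration, 48-hour dose response in 96-well plates. TGI: concentration producing complete growth inhibition.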

Key:
Assay in all cases: DTP human tumour cell line panel, 48 h
[1] = tested on: 786-0 renal
[2] = tested on: A498 renal
[3] = tested on: A549 NSCLC
[4] = tested on: ACHN renal
[5] = tested on: BT-549 breast
[6] = tested on: CAKI-1 renal
[7] = tested on: CCRF-CEM leukemia
[8] = tested on: COLO 205 colon
[9] = tested on: DU-145 prostate
[10] = tested on: EKVX NSCLC
[11] = tested on: HCC-2998 colon
[12] = tested on: HCT-116 colon
[13] = tested on: HCT-15 colon
[14] = tested on: HL-60(TB) leukemia
[15] = tested on: HOP-62 NSCLC
[16] = tested on: HOP-92 NSCLC
[17] = tested on: HS 578T breast
[18] = tested on: HT29 colon
[19] = tested on: IGROV1 ovarian
[20] = tested on: K-562 leukemia
[21] = tested on: KM12 colon
[22] = tested on: LOX IMVI melanoma
[23] = tested on: M14 melanoma
[24] = tested on: MALME-3M melanoma
[25] = tested on: MCF7 breast
[26] = tested on: MDA-MB-231 breast
[27] = tested on: MDA-MB-435
[28] = tested on: MDA-N
[29] = tested on: NCI-H226 lung
[30] = tested on: NCI-H23 lung
[31] = tested on: NCI-H522 lung
[32] = tested on: NCI/ADR-RES ovarian
[33] = tested on: OVCAR-3 ovarian
[34] = tested on: OVCAR-4 ovarian
[35] = tested on: OVCAR-5 ovarian
[36] = tested on: OVCAR-8 ovarian
[37] = tested on: PC-3 prostate
[38] = tested on: RPMI-8226 leukemia
[39] = tested on: RXF 393 renal
[40] = tested on: SF-268 CNS
[41] = tested on: SF-295 CNS
[42] = tested on: SF-539 CNS
[43] = tested on: SK-MEL-2 melanoma
[44] = tested on: SK-MEL-28 melanoma
[45] = tested on: SK-MEL-5 melanoma
[46] = tested on: SN12C renal
[47] = tested on: SNB-19 CNS
[48] = tested on: SW-620 colon
[49] = tested on: T-47D breast
[50] = tested on: TK-10 renal
[51] = tested on: U251 CNS
[52] = tested on: UACC-257 melanoma
[53] = tested on: UACC-62 melanoma
[54] = tested on: UO-31 renal
[55] = tested on: MOLT-4 leukemia
[56] = tested on: NCI-H460 lung
[57] = tested on: SK-OV-3 ovarian

CC(C)(C)OC(=O)NCC(c1c[nH]c2ccc(Br)cc12)c1c[nH]c2ccc(Br)cc12
TGI [1]: 13.2 µM
TGI [2]: 29.1 µM
TGI [3]: 17.2 µM
TGI [4]: 18.1 µM
TGI [5]: 24.8 µM
TGI [6]: 24.5 µM
TGI [7]: 71.1 µM
TGI [8]: 16.2 µM
TGI [9]: 27.7 µM
TGI [10]: 15.2 µM
TGI [11]: 18 µM
TGI [12]: 13.8 µM
TGI [13]: 20.8 µM
TGI [14]: 37.1 µM
TGI [15]: 27.3 µM
TGI [16]: 19.4 µM
TGI [17]: 47.7 µM
TGI [18]: 12.2 µM
TGI [19]: 17.3 µM
TGI [20]: > 100 µM
TGI [21]: 19.4 µM
TGI [22]: 22.7 µM
TGI [23]: 12.6 µM
TGI [24]: 33.3 µM
TGI [25]: 22 µM
TGI [26]: 32.1 µM
TGI [27]: 28.7 µM
TGI [28]: 21.2 µM
TGI [29]: 36.7 µM
TGI [30]: 14.5 µM
TGI [31]: 25.2 µM
TGI [32]: 23.1 µM
TGI [33]: 17.2 µM
TGI [34]: 25.9 µM
TGI [35]: 20.2 µM
TGI [36]: 45.6 µM
TGI [37]: 11.8 µM
TGI [38]: > 100 µM
TGI [39]: 25.7 µM
TGI [40]: 25.6 µM
TGI [41]: 21.9 µM
TGI [42]: 27.8 µM
TGI [43]: 22.3 µM
TGI [44]: 34.9 µM
TGI [45]: 19 µM
TGI [46]: 18.1 µM
TGI [47]: 23.3 µM
TGI [48]: 24.9 µM
TGI [49]: 32.9 µM
TGI [50]: 25.2 µM
TGI [51]: 19.1 µM
TGI [52]: 25.6 µM
TGI [53]: 23.1 µM
TGI [54]: 19.6 µM

Clc1ccc(CSC2=NCCN2)cc1Cl
TGI [1]: 23.8 µM
TGI [2]: 52.8 µM
TGI [3]: 98.9 µM
TGI [4]: 30.9 µM
TGI [5]: 40.2 µM
TGI [6]: 23.5 µM
TGI [7]: 22.3 µM
TGI [8]: 37.9 µM
TGI [9]: 29.7 µM
TGI [10]: 24.3 µM
TGI [11]: 30.1 µM
TGI [12]: 28.7 µM
TGI [13]: 31.9 µM
TGI [14]: 27.7 µM
TGI [15]: 47.1 µM
TGI [16]: 13.8 µM
TGI [17]: 53.7 µM
TGI [18]: 28.4 µM
TGI [19]: 39.1 µM
TGI [20]: 88.8 µM
TGI [21]: 33.5 µM
TGI [22]: 30.1 µM
TGI [23]: 30.6 µM
TGI [24]: 28.6 µM
TGI [25]: 25.2 µM
TGI [26]: 29.2 µM
TGI [27]: 30.5 µM
TGI [28]: 25 µM
TGI [55]: 35.9 µM
TGI [29]: 42.3 µM
TGI [30]: 35.8 µM
TGI [56]: 37.3 µM
TGI [31]: 21.5 µM
TGI [32]: 49.8 µM
TGI [33]: 30.3 µM
TGI [34]: 27 µM
TGI [35]: 53.3 µM
TGI [36]: 40 µM
TGI [37]: 23.7 µM
TGI [38]: 36.3 µM
TGI [39]: 28.4 µM
TGI [40]: 42.5 µM
TGI [41]: > 100 µM
TGI [44]: 35.1 µM
TGI [45]: 26 µM
TGI [57]: 49.5 µM
TGI [46]: 35.8 µM
TGI [47]: > 100 µM
TGI [48]: 35.4 µM
TGI [49]: 27 µM
TGI [50]: 31.5 µM
TGI [51]: 27 µM
TGI [52]: 24.1 µM
TGI [53]: 30.5 µM
TGI [54]: 23.6 µM
